Common to all, as to assay type: cell-based, human
Assay [1] relates to Kidney cancer (Caki-1) cells. As to the kind of experiment: Caki-1 cell viability (MTT), peptides and ADP-ribose alone or in combination. Conditions: treated groups vs untreated, ADPR 1 mM, peptide 25 μM, CPP-peptide 10 μM, 96 hours. How it is done:
(§1) 2.5×10^3 Kidney cancer (Caki-1) cells were cultured in a 96-well plate for 24 hours under 37° C. and 5% CO2 conditions, and then divided into the following groups and treated with each peptide according to Examples at GI50 concentration alone or in combination. • 1) Untreated group • 2) Group treated with ADPR at 1 mM concentration alone • 3) Group treated with peptide of Example 1 at 25 μM concentration alone • 4) Group treated with each CPP-peptide of Example 15 at 10 μM concentration alone • 5) Group treated in combination with ADPR at 1 mM concentration and peptide of Example 1 at 25 μM concentration (Combination 1) • 6) Group treated in combination with ADPR at 1 mM concentration and CPP-peptide of Example 15 at 10 μM concentration (Combination 2)
(§2) The cells were then cultured for another 96 hours under 37° C. and 5% CO2 conditions, and 10 μl of 3-(4,5-dimethylthiazol-2-yl)-2,5-diphenyltetrazolium bromide reagent was added to each well and reacted for 1 hour. The reagent was removed at the end of the reaction, 200 μl of dimethyl sulfoxide was then added to each well, and the absorbance was measured to determine the cell viability.

For assay [2], the system named is Breast cancer (HCC1937) cells. Kind of assay: HCC1937 cell viability (MTT), peptides and ADP-ribose alone or in combination. The conditions noted are these: treated groups vs untreated, ADPR 1 mM, peptide 25 μM, CPP-peptide 10 μM, 96 hours. How it is done: as §1, with “2.5×10^3 Breast” for “2.5×10^3 Kidney”, “cancer (HCC1937)” for “cancer (Caki-1)”, “Example 2” for “Example 1”, “Example 16” for “Example 15”
as §2

Assay [3] concerns Pancreatic cancer (AsPC-1) cells. Kind of assay: AsPC-1 cell viability (MTT), peptides and ADP-ribose alone or in combination. Conditions: treated groups vs untreated, ADPR 1 mM, peptide 25 μM, CPP-peptide 10 μM, 96 hours. As for the experimental part: as §1, with “2.5×10^3 Pancreatic” for “2.5×10^3 Kidney”, “cancer (AsPC-1)” for “cancer (Caki-1)”, “Example 3” for “Example 1”, “Example 17” for “Example 15”
as §2

In assay [4] the test system is Liver cancer (HepG2) cells. As to the kind of experiment: HepG2 cell viability (MTT), peptides and ADP-ribose alone or in combination. The conditions noted are these: treated groups vs untreated, ADPR 1 mM, peptide 25 μM, CPP-peptide 10 μM, 96 hours. How it is done: as §1, with “2.5×10^3 Liver” for “2.5×10^3 Kidney”, “cancer (HepG2)” for “cancer (Caki-1)”, “Example 4” for “Example 1”, “Example 18” for “Example 15”
as §2

Assay [5] has as its system Lung cancer (H1975) cells. As to the kind of experiment: H1975 cell viability (MTT), peptides and ADP-ribose alone or in combination. Conditions: treated groups vs untreated, ADPR 1 mM, peptide 25 μM, CPP-peptide 10 μM, 96 hours. As for the experimental part: as §1, with “2.5×10^3 Lung” for “2.5×10^3 Kidney”, “cancer (H1975)” for “cancer (Caki-1)”, “Example 5” for “Example 1”, “Example 19” for “Example 15”
as §2

The test system of assay [6] is Colon cancer (HCT116) cells. Kind of assay: HCT116 cell viability (MTT), peptides and ADP-ribose alone or in combination. Conditions: treated groups vs untreated, ADPR 1 mM, peptide 25 μM, CPP-peptide 10 μM, 96 hours. As for the experimental part:
as §1, with “2.5×10^3 Colon” for “2.5×10^3 Kidney”, “cancer (HCT116)” for “cancer (Caki-1)”, “Example 6” for “Example 1”, “Example 20” for “Example 15”
as §2

Assay [7] concerns PARP inhibitor-resistant breast cancer (HCC1937) cells. Kind of assay: Cell viability (MTT) in PARP inhibitor-resistant cancer cell line. The conditions noted are these: ADPR 1 mM, peptide 25 μM or CPP-peptide 10 μM alone, 96 hours. As for the experimental part:
Specifically, 2.5×10^3 PARP inhibitor-resistant breast cancer (HCC1937) cells were cultured in a 96-well plate for 24 hours under 37° C. and 5% CO2 conditions.
The cells were then divided into the following groups and treated with each peptide according to Examples at GI50 concentration alone or in combination. • 1) Untreated group • 2) Group treated with PARP inhibitor (Olaparib) at 2 μM concentration • 3) Group treated with ADPR at 1 mM concentration alone • 4) Groups treated with each peptide of Examples 1 to 6 at 25 μM concentration alone • 5) Groups treated with each CPP-peptide of Examples 15 to 20 at 10 μM concentration alone • 6) Group treated in combination with ADPR at 1 mM concentration and each peptide of Examples 1 to 6 at 25 μM concentration (Combination 1) • 6) Group treated in combination with ADPR at 1 mM concentration and CPP-peptide of Examples 15 to 20 at 10 μM concentration (Combination 2)
as §2

The record followed here is patent US20250250310A1, “COMBINATION THERAPY WITH ADP-RIBOSE BINDING PEPTIDE AND ADP-RIBOSE FOR PREVENTION OR TREATMENT OF CANCER” (PEARLSINMIRES CO., LTD., priority 2023, published 2025).

With `Nc1ncnc2c1ncn2[C@@H]1O[C@H](COP(=O)(O)OP(=O)(O)OC[C@H]2O[C@@H](O)C(O)C2O)C(O)C1O` (stereo partly shown) [ADP-ribose], the cell viability entry in assay [1], in assay [2], in assay [3], in assay [4], in assay [5] and in assay [6] was “viability was reduced” throughout. In addition, the “cell viability, single treatment” value in assay [7] is reported as “significantly reduced cell viability”.
